# In paper PMC4669143, “Wild Edible Fruit of Prunus nepalensis Ser. (Steud), a Potential Source of Antioxidants, Ameliorates Iron Overload-Induced Hepatotoxicity and Liver Fibrosis in Mice” (PLoS ONE, 2015):
# Columns and labels:
# [1] = Fe2+ chelating activity assay; type: biochemical; conditions: for Iron chelation activity (in words): Fig 12C
# Description: (§1) The Fe^2+ chelating ability was determined as described earlier. […] The densitometric analysis of the DNA bands was performed using ImageJ 1.47v tool by the software company NIH, USA. The DNA supercoil protection capacity of the fruit extract was expressed as the [P]50 value, the amount of sample required for 50% protection. The degree of inhibition of Fe^2+-mediated lipid peroxidation was assessed by estimating the TBARS by the method of Ghate et al. 2013 [9] using freshly prepared brain homogenates of Swiss albino mouse brains. The results are expressed as a percentage of inhibition.
# [2] = Superoxide anion scavenging assay; type: biochemical; conditions: mean ± S.D., n = 6
# [3] = system: iron overload induced hepatotoxicity in mice; assay: Serum markers in iron-dextran overloaded mice after oral therapy; type: in vivo, Swiss albino mice; conditions: desirox 20 mg/kg b.w. oral
# Description: (one dose every alternative days).
# Aspartate amino transferase (ASAT), alanine amino transferase (ALAT), and billirubin levels in the serum were evaluated using commercially available kits from Merck (India). Moreover, alkaline phosphatase (ALP) levels in the serum were measured by a kit procured from Sentinel Diagnostics, Italy.
# [4] = DPPH radical scavenging assay; type: biochemical; conditions: mean ± S.D., n = 6
# Description: Standard methods were used to evaluate the Fe^3+-reducing capacity of the extract. The DPPH (2,2-diphenyl-1-picrylhydrazyl) scavenging potential of the extract was investigated according to Ghate et al, 2013 [9]. The scavenging percentage of PNME was evaluated from the values of the control and the test samples.
# [5] = Hypochlorous acid scavenging assay; type: biochemical; conditions: mean ± S.D., n = 6
# [6] = Peroxynitrite scavenging assay; type: biochemical; conditions: mean ± S.D., n = 6
# [7] = system: Fe2+-mediated lipid peroxidation; assay: Inhibition of Fe2+-mediated lipid peroxidation (TBARS) in brain homogenates; type: biochemical, Swiss albino mouse; conditions: mouse brain homogenate, mean ± S.D., n = 6
# Description: as §1
# [8] = Hydroxyl radical scavenging assay; type: biochemical; conditions: mean ± S.D., n = 6
# [9] = Singlet oxygen scavenging assay; type: biochemical; conditions: mean ± S.D., n = 6
compound,measurement,setting,value
O.Oc1cc(O)c2c(c1)O[C@H](c1ccc(O)c(O)c1)[C@@H](O)C2 [catechin],Iron chelation activity (in words),[1],failed to show any activity
O=c1c(O)c(-c2ccc(O)c(O)c2)oc2cc(O)cc(O)c12 [Quercetin],IC50 Superoxide anion (O2•−) scavenging,[2],42.06 ± 1.35 µg/mL
"O=C(O)c1ccc(-n2nc(-c3ccccc3O)nc2-c2ccccc2O)cc1 [desirox, Deferasirox]",ALAT % change,"[3]; D, change versus blank group B",52.80%
same,ALP % change,"[3]; D, change versus blank group B",84.44%
same,ASAT % change,"[3]; D, change versus blank group B",17.36%
same,Bilirubin % change,"[3]; D, change versus blank group B",10.97%
same,ALAT,"[3]; serum, 21 days (D)",23.55±1.09 ^X3Y3 Unit/L
same,ALP,"[3]; serum, 21 days (D)",61.01± 2.44 ^X3Y3 Unit/L
same,ASAT,"[3]; serum, 21 days (D)",79.35±4.37 ^X1 Y3 Unit/L
O=C1O[C@H]([C@@H](O)CO)C(O)=C1O [Ascorbic acid],IC50 DPPH scavenging,[4],5.29 ± 0.28 µg/mL
same,IC50 Hypochlorous acid (HOCl) scavenging,[5],235.96 ± 5.75 µg/mL
same,Iron chelation activity (in words),[1],failed to show any activity
O=C(O)c1cc(O)c(O)c(O)c1 [Gallic acid],IC50 Peroxynitrite (ONOO-) scavenging,[6],876 ± 570 µg/mL
"Cc1c(C)c2c(c(C)c1O)CCC(C)(C(=O)O)O2 (stereo not shown) [Trolox, 6-hydroxy-2,5,7,8-tetramethylchroman-2-carboxylic acid]",IC50 Lipid peroxidation,[7],6.76 ± 0.17 µg/mL
OC[C@@H](O)[C@@H](O)[C@H](O)[C@H](O)CO [Mannitol],IC50 Hydroxyl radical (OH•) scavenging,[8],571.45 ± 20.12 µg/mL
tannic acid,Iron chelation activity (in words),[1],most potent iron chelator
"O=C(O)CN(CCN(CC(=O)O)CC(=O)O)CC(=O)O [EDTA, Ethylenediamine tetraacetic acid]",IC50 Iron chelating activity,"[1]; mean ± S.D., n = 6",1.27 ± 0.05 µg/mL
"COC(=O)[C@H]1[C@H]2C[C@@H]3c4[nH]c5cc(OC)ccc5c4CCN3C[C@H]2C[C@@H](OC(=O)c2cc(OC)c(OC)c(OC)c2)[C@@H]1OC [Reserpine, reserpine]",Iron chelation activity (in words),[1],failed to show any activity
O=C(O)CCCC[C@@H]1CCSS1 (racemic) [Lipoic acid],IC50 Singlet oxygen (1O2) scavenging,[9],46.15 ± 1.16 µg/mL
